This is an account of results in US20090312370A1, “MACROCYCLIC COMPOUNDS USEFUL AS BACE INHIBITORS” (priority 2006, published 2009).

In this assay the target is T1, Human BACE (Homo sapiens, UniProt P56817).
T1 construct: Recombinant BACE (extracellular domain, expressed in baculovirus and purified using standard methods); made in house; host or cells: baculovirus expression system (insect cells)
The experiment in a line: Test 1: Inhibition of Human BACE. Type of assay: biochemical. Particulars: recombinant BACE, fluorescence-quenched peptide substrate, pH 4.5. The protocol:
Test 1: Inhibition of Human BACE
Recombinant BACE (extracellular domain, expressed in baculovirus and purified using standard methods) at 0.1 to 10 nM concentrations is incubated with the test compound at various concentrations for 1 hour at room temperature in 10 to 100 mM acetate buffer, pH 4.5, containing 0.1% CHAPS.

T1 sequence (P56817 46-457 limits assumed): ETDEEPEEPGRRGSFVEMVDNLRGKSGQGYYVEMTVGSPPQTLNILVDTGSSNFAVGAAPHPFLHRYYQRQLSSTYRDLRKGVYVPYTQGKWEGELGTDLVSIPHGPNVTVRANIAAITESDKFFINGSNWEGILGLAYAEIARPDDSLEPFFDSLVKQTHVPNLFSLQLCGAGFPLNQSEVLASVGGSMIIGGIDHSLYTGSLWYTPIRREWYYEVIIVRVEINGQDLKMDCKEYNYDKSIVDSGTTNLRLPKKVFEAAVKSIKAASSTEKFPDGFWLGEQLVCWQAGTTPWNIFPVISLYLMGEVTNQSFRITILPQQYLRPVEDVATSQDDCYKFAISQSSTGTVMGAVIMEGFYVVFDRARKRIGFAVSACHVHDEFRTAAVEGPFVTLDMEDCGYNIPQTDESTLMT

For `COc1cc2cc(c1)C(=O)N[C@H]([C@H](O)CNC1(c3cc(C(C)(C)C)ccn3)CC1)C[C@H](C)CCCCCCCN2` [Example 7, (10R,12S)-12-{(R)-2-[1-(4-tert-Butyl-pyrid-2-yl)-cyclopropylamino]-1-hydroxy-ethyl}-17-methoxy-10-methyl-2,13-diaza-bicyclo[13.3.1]nonadeca-1(19),15,17-trien-14-one], the IC50 was determined as 40 nM.

The term IC50 denotes the concentration at which inhibition is half-maximal.
